{
  "source": "patent US12662469B2",
  "about": "(SIRONAX LTD, priority 2018, dated 2026)",
  "data": [
    {"tested_on": "Cell Necrosis", "test": "Cell necrosis assay / cell viability assay (necrosis inhibitor activity)", "type": "cell-based", "details": "necrosis inhibitor activity; EC data for 14-191 extrapolated; read-out: EC50", "units": {"EC50": "µM"}, "values": [
      {"smiles": "Cc1csc(OC2CN(C(=O)N3N=CCC3c3cc(F)cc(F)c3)C2)n1", "note": "(stereo not shown) [Compound 175]", "EC50": "0.001 to 1"},
      {"smiles": "O=C(N1CC/C(=C/c2ccccc2)C1)N1N=CCC1c1ccccc1", "note": "(stereo not shown) [Compound 58, (Z)-(3-benzylidenepyrrolidin-1-yl)(5-phenyl-4,5-dihydro-1H-pyrazol-1-yl)methanone]", "EC50": "0.001 to 1"},
      {"smiles": "O=C(N1CC(=Cc2ccc(F)cc2)C1)N1N=CCC1c1cc(F)cc(F)c1", "note": "(stereo not shown) [Compound 57, (5-(3,5-difluorophenyl)-4,5-dihydro-1H-pyrazol-1-yl)(3-(4-fluorobenzylidene)azetidin-1-yl)methanone]", "EC50": "0.001 to 1"},
      {"smiles": "O=C(N1CC(Oc2ccc(F)cn2)C1)N1N=CCC1c1ccccc1", "note": "(stereo not shown) [Compound 72, (3-((5-fluoropyridin-2-yl)oxy)azetidin-1-yl)(5-phenyl-4,5-dihydro-1H-pyrazol-1-yl)methanone]", "EC50": "0.001 to 1"},
      {"smiles": "O=C(N1CC(Oc2ccccc2F)C1)N1OCC[C@H]1c1ccccc1", "note": "[Compound 77, (S)-(3-(2-fluorophenoxy)azetidin-1-yl)(3-phenylisoxazolidin-2-yl)methanone]", "EC50": "0.001 to 1"},
      {"smiles": "O=C(N1CC(Oc2cc(Br)ncn2)C1)N1N=CCC1c1ccccc1", "note": "(stereo not shown) [Compound 127, (3-((6-bromopyrimidin-4-yl)oxy)azetidin-1-yl)(5-phenyl-4,5-dihydro-1H-pyrazol-1-yl)methanone]", "EC50": "0.001 to 1"},
      {"smiles": "O=C(N1CC[C@@H](Oc2ccccc2F)C1)N1N=CCC1c1ccccc1", "note": "(stereo partly drawn) [Compound 31, ((R)-3-(2-fluorophenoxy)pyrrolidin-1-yl)(5-phenyl-4,5-dihydro-1H-pyrazol-1-yl)methanone]", "EC50": "0.001 to 1"},
      {"smiles": "O=C(N1CC(Oc2ccc(=O)[nH]c2)C1)N1N=CCC1c1cc(F)cc(F)c1", "note": "(stereo not shown) [Compound 186]", "EC50": "0.001 to 1"},
      {"smiles": "O=C(N1CC(Cc2ccccc2Cl)C1)N1N=CCC1c1ccccc1", "note": "(stereo not shown) [Compound 47, (3-(2-chlorobenzyl)azetidin-1-yl)(5-phenyl-4,5-dihydro-1H-pyrazol-1-yl)methanone]", "EC50": "0.001 to 1"},
      {"smiles": "O=C(N1CC(=Cc2ccc(F)cc2Cl)C1)N1N=CCC1c1cc(F)cc(F)c1", "note": "(stereo not shown) [Compound 139, (3-(2-chloro-4-fluorobenzylidene)azetidin-1-yl)(5-(3,5-difluorophenyl)-4,5-dihydro-1H-pyrazol-1-yl)methanone]", "EC50": "0.001 to 1"},
      {"smiles": "O=C(N1CCN(c2ncc(Cl)cn2)CC1)N1N=CCC1c1ccccc1", "note": "(stereo not shown) [Compound 88, (4-(5-chloropyrimidin-2-yl)piperazin-1-yl)(5-phenyl-4,5-dihydro-1H-pyrazol-1-yl)methanone]", "EC50": "0.001 to 1"},
      {"smiles": "O=C(N1CC(Oc2scc3c(=O)[nH]cnc23)C1)N1N=CCC1c1cc(F)cc(F)c1", "note": "(stereo not shown) [Compound 169]", "EC50": "0.001 to 1"},
      {"smiles": "O=C1NCc2c1csc2OC1CN(C(=O)N2N=CCC2c2cc(F)cc(F)c2)C1", "note": "(stereo not shown) [Compound 168]", "EC50": "0.001 to 1"},
      {"smiles": "O=C(N1CC(=Cc2ccc3cc[nH]c3c2)C1)N1N=CCC1c1cc(F)cc(F)c1", "note": "(stereo not shown) [Compound 184]", "EC50": "0.001 to 1"},
      {"smiles": "O=C(N1CC(C(F)c2ccc(F)cc2F)C1)N1N=CCC1c1cc(F)cc(F)c1", "note": "(stereo not shown) [Compound 134, (5-(3,5-difluorophenyl)-4,5-dihydro-1H-pyrazol-1-yl)(3-((2,4-difluorophenyl)fluoromethyl)azetidin-1-yl)methanone]", "EC50": "0.001 to 1"},
      {"smiles": "COc1cccc(C=C2CN(C(=O)N3N=CCC3c3ccccc3)C2)c1", "note": "(stereo not shown) [Compound 43, (3-(3-methoxybenzylidene)azetidin-1-yl)(5-phenyl-4,5-dihydro-1H-pyrazol-1-yl)methanone]", "EC50": "0.001 to 1"},
      {"smiles": "Cc1ccccc1C=C1CN(C(=O)N2N=CCC2c2ccccc2)C1", "note": "(stereo not shown) [Compound 38, (3-(2-methylbenzylidene)azetidin-1-yl)(5-phenyl-4,5-dihydro-1H-pyrazol-1-yl)methanone]", "EC50": "0.001 to 1"},
      {"smiles": "O=C(NC1CCN(c2ccccc2)C1)N1N=CCC1c1ccccc1", "note": "(stereo not shown) [Compound 24, 5-phenyl-N-(1-phenylpyrrolidin-3-yl)-4,5-dihydro-1H-pyrazole-1-carboxamide]", "EC50": "0.001 to 1"},
      {"smiles": "O=C(N1CC(Oc2nc3c(=O)[nH]ccc3s2)C1)N1N=CCC1c1cc(F)cc(F)c1", "note": "(stereo not shown) [Compound 174]", "EC50": "0.001 to 1"},
      {"smiles": "C[C@H]1CN(c2ncc(F)cn2)CCN1C(=O)N1N=CCC1c1ccccc1", "note": "(stereo in doubt) [Compound 111B, (S)-(4-(5-fluoropyrimidin-2-yl)-2-methylpiperazin-1-yl)(5-phenyl-4,5-dihydro-1H-pyrazol-1-yl)methanone]", "EC50": "1 to 10"},
      {"smiles": "C[C@@H]1CN(c2ncc(F)cn2)C[C@H](C)N1C(=O)N1N=CCC1c1cc(F)cc(F)c1", "note": "(stereo partly drawn) [Compound 30, (5-(3,5-difluorophenyl)-4,5-dihydro-1H-pyrazol-1-yl)((2R,6S)-4-(5-fluoropyrimidin-2-yl)-2,6-dimethylpiperazin-1-yl)methanone]", "EC50": "0.001 to 1"}
    ]},
    {"tested_on": "Cell Necrosis", "test": "Cell necrosis assay / cell viability assay (necrosis inhibitor activity)", "type": "cell-based", "details": "necrosis inhibitor activity; compounds outside 14-191; read-out: EC50", "units": {"EC50": "µM"}, "values": [
      {"smiles": "O=C(N1CCCC1)N1N=CCC1c1ccccc1", "note": "(stereo not shown) [Compound 6, (5-phenyl-4,5-dihydro-1H-pyrazol-1-yl)(pyrrolidin-1-yl)methanone]", "EC50": "0.001 to 1"},
      {"smiles": "CC(=O)Nc1cccc(OC2CN(C(=O)N3N=CCC3c3cc(F)cc(F)c3)C2)c1", "note": "(stereo not shown) [Compound 228, N-(3-((1-(5-(3,5-difluorophenyl)-4,5-dihydro-1H-pyrazole-1-carbonyl)azetidin-3-yl)oxy)phenyl)acetamide]", "EC50": "0.001 to 1"},
      {"smiles": "Nc1cc(F)c(F)c(C=C2CN(C(=O)N3N=CC[C@H]3c3cc(F)cc(F)c3)C2)c1", "note": "[Compound 299, (S)-(3-(5-amino-2,3-difluorobenzylidene)azetidin-1-yl)(5-(3,5-difluorophenyl)-4,5-dihydro-1H-pyrazol-1-yl)methanone]", "EC50": "0.001 to 1"},
      {"smiles": "Cc1nnc(N2CCN(C(=O)N3N=CC[C@H]3c3cc(F)cc(F)c3)CC2)s1", "note": "[Compound 384, (S)-(5-(3,5-difluorophenyl)-4,5-dihydro-1H-pyrazol-1-yl)(4-(5-methyl-1,3,4-thiadiazol-2-yl)piperazin-1-yl)methanone]", "EC50": "0.001 to 1"},
      {"smiles": "Nc1nccc(O[C@@H]2CCN(C(=O)N3N=CC[C@H]3c3cc(F)cc(F)c3)C2)n1", "note": "[Compound 367, ((R)-3-((2-aminopyrimidin-4-yl)oxy)pyrrolidin-1-yl)((S)-5-(3,5-difluorophenyl)-4,5-dihydro-1H-pyrazol-1-yl)methanone]", "EC50": "0.001 to 1"},
      {"smiles": "O=C(N1CC(Oc2cc3[nH]nc(F)c3cc2F)C1)N1N=CCC1c1ccccc1", "note": "(stereo not shown) [Compound 379, (3-((3,5-difluoro-1H-indazol-6-yl)oxy)azetidin-1-yl)(5-phenyl-4,5-dihydro-1H-pyrazol-1-yl)methanone]", "EC50": "0.001 to 1"},
      {"smiles": "CC1CCCN(C(=O)N2N=CCC2c2ccccc2)C1", "note": "(stereo not shown) [Compound 9, (3-methylpiperidin-1-yl)(5-phenyl-4,5-dihydro-1H-pyrazol-1-yl)methanone]", "EC50": "0.001 to 1"},
      {"smiles": "N#Cc1cc(O[C@@H]2CCN(C(=O)N3N=CC[C@H]3c3cc(F)cc(F)c3)C2)ccc1F", "note": "[Compound 342, 5-(((R)-1-((S)-5-(3,5-difluorophenyl)-4,5-dihydro-1H-pyrazole-1-carbonyl)pyrrolidin-3-yl)oxy)-2-fluorobenzonitrile]", "EC50": "0.001 to 1"},
      {"smiles": "NCC#Cc1ccnc(N2CCN(C(=O)N3N=CCC3c3cc(F)cc(F)c3)CC2)n1", "note": "(stereo not shown) [Compound 382, (4-(4-(3-aminoprop-1-yn-1-yl)pyrimidin-2-yl)piperazin-1-yl)(5-(3,5-difluorophenyl)-4,5-dihydro-1H-pyrazol-1-yl)methanone frifluoroacetate]", "EC50": "0.001 to 1"},
      {"smiles": "O=C(N1CC(=Cc2ccc3[nH]cnc3c2)C1)N1N=CC[C@H]1c1cc(F)cc(F)c1", "note": "[Compound 284]", "EC50": "0.001 to 1"},
      {"smiles": "O=C1COc2cccc(O[C@@H]3CCN(C(=O)N4N=CC[C@H]4c4cc(F)cc(F)c4)C3)c2N1", "note": "[Compound 243, 5-(((R)-1-((S)-5-(3,5-difluorophenyl)-4,5-dihydro-1H-pyrazole-1-carbonyl)pyrrolidin-3-yl)oxy)-2H-benzo[b][1,4]oxazin-3(4H)-one]", "EC50": "0.001 to 1"},
      {"smiles": "NC(=O)c1ccc(C=C2CN(C(=O)N3N=CC[C@H]3c3cc(F)cc(F)c3)C2)cn1", "note": "[Compound 295, (S)-5-((1-(5-(3,5-difluorophenyl)-4,5-dihydro-1H-pyrazole-1-carbonyl)azetidin-3-ylidene)methyl)picolinamide]", "EC50": "0.001 to 1"},
      {"smiles": "O=C(N1CC(Oc2ccc(F)cn2)C1)N1N=CCC1c1cc(F)cc(F)c1", "note": "(stereo not shown) [Compound 212, (5-(3,5-difluorophenyl)-4,5-dihydro-1H-pyrazol-1-yl)(3-((5-fluoropyridin-2-yl)oxy)azetidin-1-yl)methanone]", "EC50": "0.001 to 1"},
      {"smiles": "O=C(c1nc(OC2CN(C(=O)N3N=CC[C@H]3c3cc(F)cc(F)c3)C2)sc1Cl)N1CCC1", "note": "[Compound 275]", "EC50": "0.001 to 1"},
      {"smiles": "N#Cc1cncc(C2CC=NN2C(=O)N2CC(Oc3cc4[nH]nc(F)c4cc3F)C2)c1", "note": "(stereo not shown) [Compound 381, 5-(1-(3-((3,5-difluoro-1H-indazol-6-yl)oxy)azetidine-1-carbonyl)-4,5-dihydro-1H-pyrazol-5-yl)nicotinonitrile]", "EC50": "0.001 to 1"},
      {"smiles": "CCOC(=O)c1nc(OC2CN(C(=O)N3N=CC[C@H]3c3cc(F)cc(F)c3)C2)sc1Cl", "note": "[Compound 272, ethyl (S)-5-chloro-2-((1-(5-(3,5-difluorophenyl)-4,5-dihydro-1H-pyrazole-1-carbonyl)azetidin-3-yl)oxy)thiazol-4-carboxylate]", "EC50": "0.001 to 1"},
      {"smiles": "O=C1Nc2cc(OC3CN(C(=O)N4N=CC[C@H]4c4cc(F)cc(F)c4)C3)c(F)cc2OC1CCO", "note": "(stereo partly drawn) [Compound 246, 6-((1-((S)-5-(3,5-difluorophenyl)-4,5-dihydro-1H-pyrazole-1-carbonyl)azetidin-3-yl)oxy)-7-fluoro-2-(2-hydroxyethyl)-2H-benzo[b][1,4]oxazin-3(4H)-one]", "EC50": "0.001 to 1"},
      {"smiles": "N#Cc1ccnc(O[C@@H]2CCN(C(=O)N3N=CC[C@H]3c3cc(F)cc(F)c3)C2)c1", "note": "[Compound 336, 2-(((R)-1-((S)-5-(3,5-difluorophenyl)-4,5-dihydro-1H-pyrazole-1-carbonyl)pyrrolidin-3-yl)oxy)isonicotinonitrile]", "EC50": "0.001 to 1"},
      {"smiles": "N#Cc1ccc(O[C@@H]2CCN(C(=O)N3N=CC[C@H]3c3cc(F)cc(F)c3)C2)c(Cl)n1", "note": "[Compound 365, 6-chloro-5-(((R)-1-((S)-5-(3,5-difluorophenyl)-4,5-dihydro-1H-pyrazole-1-carbonyl)pyrrolidin-3-yl)oxy)picolinonitrile]", "EC50": "0.001 to 1"}
    ]}
  ]
}
